Test results: US9326506B2, “Preparation method, agricultural composition and applications of natural brassinolide analogs” (CHENGDU NEWSUN CROPSCIENCE CO., LTD, priority 2012, dated 2016)

System: rice
Test: Low temperature assay on rice seedlings
Format: in vivo
Method: According to a low temperature assay, we measured parameters including plant height, number of leaf, area of leaf, number of tiller, weight of root at low temperature to completely determine effects of the natural brassinolide analogues on the resistance to low temperature of a plant.
The natural brassinolide analogues, BR1, BR2, BR3, BR4, BR5 and BR6, used herein, were those prepared by the method of Example 1. Respectively the analogues were dissolved into 95% (V/V) ethanol solution, and then diluted with pure water to 1 mg/L, 0.1 mg/L, 0.01 mg/L, 0.001 mg/L and 0.0001 mg/L. In addition, pure water was used as a control.
After rice seeds were disinfected by using 5% sodium hypochlorite solution treatment, they were rinsed with distilled water until their pH>7, placed into a petri dish in a dark incubator, and cultured by using water at 30° C.±2° C. for 9 days. Then respectively the nine-day-old etiolated seedlings of rice were immersed in the above solutions containing different concentrations of the natural brassinolide analogues or pure water, and cultured at the temperature of 1° C., 2° C., 3° C., 4° C. and 5° C. for 24 hr. The parameters including plant height, area of leaf and weight of root after 3, 6, 9 and 12 days and number of leaf and number of tiller after 12 days were measured.

CC(C)C[C@@H](O)[C@H](O)[C@@H](C)[C@H]1CCC2C3CC(=O)C4C[C@H](O)[C@H](O)C[C@]4(C)C3CC[C@@]21C (stereo partly shown) [BR5]
Height (0.01 mg/l, 3 °C, 9 days): 7.5 cm | Weight of root (0.01 mg/l, 3 °C, 9 days): 2.7 g | Area of leaf (0.01 mg/l, 3 °C, 12 days): 13.2 cm^2 | Height (0.01 mg/l, 3 °C, 12 days): 7.9 cm | Number of leaf (0.01 mg/l, 3 °C, 12 days): 3 | Number of tiller (0.01 mg/l, 3 °C, 12 days): 2 | Weight of root (0.01 mg/l, 3 °C, 12 days): 2.9 g | Area of leaf (0.01 mg/l, 4 °C, 3 days): 10.8 cm^2 | Height (0.01 mg/l, 4 °C, 3 days): 7.1 cm | Weight of root (0.01 mg/l, 4 °C, 3 days): 2.5 g | Area of leaf (0.01 mg/l, 4 °C, 6 days): 12.4 cm^2 | Height (0.01 mg/l, 4 °C, 6 days): 7.5 cm | Weight of root (0.01 mg/l, 4 °C, 6 days): 2.6 g | Area of leaf (0.01 mg/l, 4 °C, 9 days): 13.1 cm^2 | Height (0.01 mg/l, 4 °C, 9 days): 7.6 cm | Weight of root (0.01 mg/l, 4 °C, 9 days): 2.9 g | Area of leaf (0.01 mg/l, 4 °C, 12 days): 13.5 cm^2 | Height (0.01 mg/l, 4 °C, 12 days): 7.8 cm | Number of leaf (0.01 mg/l, 4 °C, 12 days): 3 | Number of tiller (0.01 mg/l, 4 °C, 12 days): 2 | Weight of root (0.01 mg/l, 4 °C, 12 days): 3.0 g | Area of leaf (0.01 mg/l, 5 °C, 3 days): 10.3 cm^2 | Height (0.01 mg/l, 5 °C, 3 days): 7.4 cm | Weight of root (0.01 mg/l, 5 °C, 3 days): 2.8 g | Area of leaf (0.01 mg/l, 5 °C, 6 days): 13.1 cm^2 | Height (0.01 mg/l, 5 °C, 6 days): 7.4 cm | Weight of root (0.01 mg/l, 5 °C, 6 days): 3.0 g | Area of leaf (0.01 mg/l, 5 °C, 9 days): 16.4 cm^2 | Height (0.01 mg/l, 5 °C, 9 days): 8 cm | Weight of root (0.01 mg/l, 5 °C, 9 days): 3.4 g | Area of leaf (0.01 mg/l, 5 °C, 12 days): 17 cm^2 | Height (0.01 mg/l, 5 °C, 12 days): 8.2 cm | Number of leaf (0.01 mg/l, 5 °C, 12 days): 4 | Number of tiller (0.01 mg/l, 5 °C, 12 days): 3 | Weight of root (0.01 mg/l, 5 °C, 12 days): 3.6 g | Area of leaf (0.1 mg/l, 1 °C, 3 days): 10.1 cm^2 | Height (0.1 mg/l, 1 °C, 3 days): 7.0 cm | Weight of root (0.1 mg/l, 1 °C, 3 days): 2.8 g | Area of leaf (0.1 mg/l, 1 °C, 6 days): 11 cm^2 | Height (0.1 mg/l, 1 °C, 6 days): 7.2 cm | Weight of root (0.1 mg/l, 1 °C, 6 days): 3.0 g | Area of leaf (0.1 mg/l, 1 °C, 9 days): 12 cm^2 | Height (0.1 mg/l, 1 °C, 9 days): 7.2 cm | Weight of root (0.1 mg/l, 1 °C, 9 days): 3.4 g | Area of leaf (0.1 mg/l, 1 °C, 12 days): 13.4 cm^2 | Height (0.1 mg/l, 1 °C, 12 days): 7.4 cm | Number of leaf (0.1 mg/l, 1 °C, 12 days): 3 | Number of tiller (0.1 mg/l, 1 °C, 12 days): 3 | Weight of root (0.1 mg/l, 1 °C, 12 days): 3.4 g | Area of leaf (0.1 mg/l, 2 °C, 3 days): 10.4 cm^2 | Height (0.1 mg/l, 2 °C, 3 days): 7.1 cm | Weight of root (0.1 mg/l, 2 °C, 3 days): 2.8 g | Area of leaf (0.1 mg/l, 2 °C, 6 days): 11.2 cm^2 | Height (0.1 mg/l, 2 °C, 6 days): 7.3 cm | Weight of root (0.1 mg/l, 2 °C, 6 days): 3.0 g | Area of leaf (0.1 mg/l, 2 °C, 9 days): 12.4 cm^2 | Height (0.1 mg/l, 2 °C, 9 days): 7.3 cm | Weight of root (0.1 mg/l, 2 °C, 9 days): 3.1 g | Area of leaf (0.1 mg/l, 2 °C, 12 days): 13.6 cm^2 | Height (0.1 mg/l, 2 °C, 12 days): 7.4 cm | Number of leaf (0.1 mg/l, 2 °C, 12 days): 3 | Number of tiller (0.1 mg/l, 2 °C, 12 days): 3 | Weight of root (0.1 mg/l, 2 °C, 12 days): 3.2 g | Area of leaf (0.1 mg/l, 3 °C, 3 days): 10.5 cm^2 | Height (0.1 mg/l, 3 °C, 3 days): 7.4 cm | Weight of root (0.1 mg/l, 3 °C, 3 days): 2.5 g | Area of leaf (0.1 mg/l, 3 °C, 6 days): 12 cm^2 | Height (0.1 mg/l, 3 °C, 6 days): 7.4 cm | Weight of root (0.1 mg/l, 3 °C, 6 days): 2.7 g | Area of leaf (0.1 mg/l, 3 °C, 9 days): 12.6 cm^2 | Height (0.1 mg/l, 3 °C, 9 days): 7.9 cm | Weight of root (0.1 mg/l, 3 °C, 9 days): 2.7 g | Area of leaf (0.1 mg/l, 3 °C, 12 days): 13.4 cm^2 | Height (0.1 mg/l, 3 °C, 12 days): 7.9 cm | Number of leaf (0.1 mg/l, 3 °C, 12 days): 3 | Number of tiller (0.1 mg/l, 3 °C, 12 days): 2 | Weight of root (0.1 mg/l, 3 °C, 12 days): 2.9 g | Area of leaf (0.1 mg/l, 4 °C, 3 days): 10.8 cm^2 | Height (0.1 mg/l, 4 °C, 3 days): 7.5 cm | Weight of root (0.1 mg/l, 4 °C, 3 days): 2.5 g | Area of leaf (0.1 mg/l, 4 °C, 6 days): 12.1 cm^2 | Height (0.1 mg/l, 4 °C, 6 days): 7.5 cm | Weight of root (0.1 mg/l, 4 °C, 6 days): 2.7 g | Area of leaf (0.1 mg/l, 4 °C, 9 days): 13.2 cm^2 | Height (0.1 mg/l, 4 °C, 9 days): 8 cm | Weight of root (0.1 mg/l, 4 °C, 9 days): 2.9 g | Area of leaf (0.1 mg/l, 4 °C, 12 days): 13.8 cm^2 | Height (0.1 mg/l, 4 °C, 12 days): 8 cm
